The text below walks through data of paper PMC6222747, “Synthesis and Structure-Activity Relationship of Daphnetin Derivatives as Potent Antioxidant Agents” (Molecules : A Journal of Synthetic Chemistry and Natural …, 2018).

Experiment [1] in a line: Ferric reducing power (FRAP) assay. The experiment is classed as biochemical. To be noted: compared with daphnetin or the parent compound. The protocol: (§1) The antioxidant activity is influenced by many factors, which cannot be fully described with a single antioxidant assay. Thus, in this study, antioxidant activities in vitro were evaluated using the free radical scavenging effect on 2,2′-diphenyl-1-picrylhydrazyl (DPPH), 2,2′-azinobis-(3-ethylbenzthiazoline-6-sulfonate) cation (ABTS^+). and the ferric reducing power (FRAP) assay, respectively, according to the literature with a slight modification.
The FRAP (ferric reducing antioxidant power) reagent was prepared with acetate buffer (300 mmol/L, pH 3.6), 2,4,6-tripyridyl-s-triazine (TPTZ) (10 mmol/L in HCl, 40 mmol/L) and FeCl3 (20 mmol/L). The proportions were 10:1:1 (v:v:v), respectively. Each sample solution was added to the FRAP reagent (1:30, v:v) and incubated at 37 °C for 5 min. The absorbance was determined at 593 nm using a spectrophotometer (Hitachi U-2800 Spectrophotometer, Tokyo, Japan). The Trolox standard solution (concentration range: 0–0.4 mmol/L) in ethanol was analyzed under the same conditions as those used for the calibration. The values of the reducing power were determined using a calibration curve of Trolox and expressed as the Trolox equivalent ([…], mmolTrolox/mmol sample).

Experiment [2] in a line: ABTS+ radical scavenging assay. Format: biochemical. To be noted: 3 min at room temperature, absorbance 734 nm, triplicate. The protocol: as §1
The mixture was incubated in the dark at room temperature for 15–16 h before use. […] Each sample solution (0.1 mL) was added to 3.9 mL ABTS^+ solution, and the absorbance was measured at room temperature after 3 min. The Trolox standard solution (concentration range: 0–0.4 mmol/L) in ethanol was analyzed under the same conditions as those used for the calibration. […]

Experiment [3] can be described thus: DPPH radical scavenging assay. To be noted: DPPH radical scavenging, 30 min at room temperature, absorbance 517 nm, triplicate. The experiment is classed as biochemical. The protocol:
as §1
Each sample in an ethanol solution (0.1 mL) was added to 3.9 mL DPPH ethanol solution (0.1 mmol/L). The solution was vortexed for 10 s and incubated at room temperature for 30 min. […] The Trolox standard solution (concentration range: 0–0.4 mmol/L) in ethanol was analyzed under the same conditions as those used for calibration. […]
On the technique in general: The DPPH test is a chemical assay of radical scavenging.

Experiment [4] has as its system mononuclear cells of umbilical blood. More on the design: method as in PMID 15113635. As to conditions: cited from earlier work.
Another experiment deals with human single cell DNA. More on the design: method as in PMID 12561251. To be noted: cited from earlier work.

In general, EC50 refers to the concentration giving half of the maximal effect. Low readings indicate an effect from little substance, high ones a need for much substance. On to `Cc1cc(=O)oc2c(O)c(O)ccc12` [Compound 2, 7,8-Dihydroxy-4-methyl-2H-chromen-2-one], for which, in experiment [1], the “reducing antioxidant power (FRAP), result in words” value is given as “decreased activities of daphnetin but were still superior to Trolox”. Besides, the EC50 in experiment [2] was 224.5 ± 1.94 µM; in experiment [3], 85.6 ± 2.13 µM. Besides, the “protection of mononuclear cells of umbilical blood from oxidative attack, compared with resveratrol” value in experiment [4] is given as “stronger activities in protecting mononuclear cells of umbilical blood from oxidative attack than resveratrol”. In addition, the “protection of human single cell DNA from oxidative attack, compared with curcumin and resveratrol” value in the experiment with human single cell DNA is “more effective in protection of human single cell DNA from oxidative attack than curcumin and resveratrol”.
